# Laboratory results as given in publication PMC7892475, “C-Terminal Amination of a Cationic Anti-Inflammatory Peptide Improves Bioavailability and Inhibitory Activity Against LPS-Induced Inflammation” (Frontiers in Immunology, 2021).
# Experiments:
# [1] = test system: NF-κB signaling pathway in LPS-treated RAW264.7 cells; test: Western blotting of the NF-κB signaling pathway; type: cell-based, mouse; settings: 100 ng/ml LPS 1 h, wash, CTP-NH2 3 h, western blot
# Method: RAW264.7 cells plated at a density 1.8 × 10^6 cells/ml were incubated with LPS (100 ng/ml) at 37°C for 1 h. After that, the cells were washed extensively with PBS before being treated with CTP-NH2 for 3 h at 37°C, followed by lysis of the cells. Cytoplasmic and nuclear protein fractions were obtained using NR-PER Nuclear and Cytoplasmic Extraction Reagents (Thermo Fisher Scientific Inc., New Zwaland). The protein concentrations were assessed with a […] (KeyGEN Biotech. Nanjing, China) according to the manufacturer’s instructions. Afterwards, total protein (40 μg protein/lane) was separated on 10% SDS-PAGE gels and then transferred to PVDF membranes (Bio-Rad). Next, the membranes were blocked with 5% non-fat dried-milk containing 0.05% TBST and then immunoblotted with specific primary antibodies against IKK-β, p-IKK-β, IкB-α, p-IкB-α, NF-кB (p65), p-NF-кB (p-p65), and β-actin (Santa Cruz, CA, USA). After being washed with TBST, the membranes were incubated with HRP-conjugated secondary antibodies (HuaAn, Hangzhou, China). A ChemiDoc MP Imaging System (Bio-Rad, Hercules, CA, USA) was used to quantify the density of the specific proteins.
# [2] = test system: LPS-stimulated RAW264.7 cells; test: Time of addition experiment (peptide pretreatment, LPS neutralization, post-treatment) in RAW264.7 cells; type: cell-based, mouse; settings: ELISA
# Method: To identify the mechanisms underlying the anti-inflammatory effects, three different types of treatments were performed as follow.
# Briefly, 10 μg/ml peptide was added to the cell culture medium and incubated with cells for 1 h at 37°C Afterwards, the RAW 264.7 cells were washed with PBS and cultured with fresh medium containing 100 ng/ml LPS for 12 h at 37°C. After treatment, TNF-α, IL-6, and IL-1β secretion in the cell supernatants was assessed.
# The peptides (10 μg/ml) were incubated with 100 ng/ml LPS directly for 1 h at 37°C. RAW 264.7 cells were stimulated with these mixtures for 12 h at 37°C. Afterwards, the TNF-α, IL-6 and IL-1β levels in the cell supernatants were assessed.
# Briefly, 100 ng/ml LPS was added to the cell culture medium and incubated with cells for 1 h at 37°C. Afterwards, the RAW 264.7 cells were washed with PBS and cultured with fresh medium containing 10 μg/ml peptides for 12 h at 37°C. Afterwards, the TNF-α, IL-6, and IL-1β levels in the cell supernatants were assessed.
# (§1) The levels of tumor necrosis factor (TNF)-α, interleukin (IL)-6, and IL-1β in cell culture supernatants and the levels of TNF-α, IL-6, and IL-1β in the serum of mice were detected using commercial ELISA kits (eBioscience, San Diego, USA) according to the manufacturer’s instructions. The levels of serum alanine amino transferase (ALT) and aspartate amino transferase (AST) were detected using commercial reagent kits (Nanjing Jiancheng Bioengineering Institute, Nanjing, China). The activity of myeloperoxidase (MPO) in the liver of mice was detected using an ELISA kit (Boster, Wuhan, China) according to the manufacturer’s instructions.
# RAW264.7 cells = test: Cellular uptake and localization of FITC-labeled peptides (confocal microscopy, flow cytometry); type: cell-based, mouse; settings: N-terminus FITC-labeled peptide, 10 μg/ml, 24 h, 37°C, confocal microscopy and flow cytometry (average FITC intensity)
# Method: RAW264.7 cells were treated with N-terminus FITC-labeled peptides at 10 μg/ml for 24 h at 37°C; in the dark. Then, the RAW264.7 cells were rinsed with PBS three times, fixed with paraformaldehyde and washed with PBS. The cell nuclei were stained with DAPI (diluted 1:500 in PBS) (Sigma, USA) for 5 min, and the cells were washed with PBS. The above cells were spread on a glass slide, fixed and observed with a Leica TCA sp5 confocal microscope (Germany).
# RAW264.7 cells were stained with 10 μg/ml N-terminus FITC-labeled peptides at 37°C in the dark for 24 h. Afterwards, the RAW264.7 cells were harvested and rinsed with PBS five times. The average FITC intensity in the cells was measured via flow cytometry.
# [3] = test system: LPS-induced sepsis in C57/BL6 mice; test: LPS-induced murine model of sepsis; type: in vivo, mouse
# Method: Male C57/BL6 mice (6–8 weeks of age) were purchased from Charles River (Beijing, China). The mice were maintained in a specific-pathogen-free (SPF) environment at 22 ± 1°C with relative 55 ± 10% humidity during the experiments. The assays were performed in conformity with the laws and regulations for live animal treatments at China Agricultural University.
# The mice were randomly distributed into three groups (n = 12 each): control, LPS (E. coli, O111:B4, Sigma-Aldrich, USA) treatment, and CTP-NH2 pretreatment followed by LPS treatment (CTP-NH2 + LPS). For the first 7 days, CTP-NH2 (10 mg/kg mouse weight) was injected intraperitoneally once daily. Meanwhile, an equal volume of sterile saline was injected into mice in the control and LPS-treated groups. On day 7, LPS (10 mg/kg mouse weight) was injected intraperitoneally into mice in the LPS and CTP-NH2 + LPS groups to establish the sepsis animal model. The control group was intraperitoneally injected with an equal volume of saline. Sixteen hours after the LPS injection, the mice were euthanized by cervical dislocation, and samples of the […] were collected for analysis.
# The mouse liver tissues were fixed in 4% paraformaldehyde, embedded in paraffin and cut into 5-μm-thick sections using an RM2235 microtome (Leica, Germany). The sections were stained with hematoxylin-eosin (H&E), and a DM3000 microscope was used to acquire images. LPS-induced liver injury was evaluated according to the following four categories: […]. The liver injury score was graded on a 0- to 4-point scale: 0, no injury; 1, up to 25% injury in the field; 2, up to 50% injury in the field; 3, up to 75% injury in the field; 4, diffuse injury ([43]).
# For immunohistochemical analysis, the sections were blocked with PBS containing 1% w/v BSA for 1 h at room temperature. Afterwards, the sections were incubated with anti-CD177^+ antibody (1:100; Santa, USA). Samples were washed with PBS followed by incubation with horse-radish peroxidase (HRP)-conjugated rabbit anti-goat IgG (1:100; JIR, USA) at 4°C for 1 h. Subsequently, slides were stained with 3,3’-diaminobenzidine (DAB; DAKO, USA) and then counterstained with Harris hematoxylin. Finally, the samples were dehydrated in an alcohol gradient (70-100%) and cleared in xylene. All slides were mounted in neutral balsam.
# as §1
substance,measurement,setting,value
"RWGRFLRKIRRFRRKDVT-NH2 [CTP-NH2, C-terminal amidated derivative peptide of CTP]","phosphorylation of IKK-β, IκB-α and NF-κB",[1],dampened levels of IKK-β
same,"TNF-α and IL-6 level, peptide used to pretreat cells or added after LPS induction","[2]; 10 μg/ml peptide 1 h then wash and 100 ng/ml LPS 12 h, or LPS 1 h, wash, then peptide 12 h",reduced the concentration of TNF-α
same,"TNF-α and IL-6 release, peptide incubated with LPS","[2]; 10 μg/ml peptide incubated with 100 ng/ml LPS 1 h at 37°C, mixture on cells 12 h",more potency than CTP
same,cellular uptake and localization,RAW264.7 cells,significant cellular uptake and a dispersed distribution compared with CTP
same,liver MPO activity,"[3]; ELISA, 10 mg/kg i.p. pretreatment, LPS 10 mg/kg i.p., vs LPS-treated mice",significantly reduced this effect
same,infiltration of CD177+ neutrophils into the liver,"[3]; immunohistochemistry, 10 mg/kg i.p. pretreatment, LPS 10 mg/kg i.p., vs LPS-treated group",significantly lower
same,"serum TNF-α, IL-6 and IL-1β levels","[3]; male C57/BL6 mice, 10 mg/kg i.p. once daily 7 days (Figure 8 legend: 6 days), then LPS 10 mg/kg i.p., 16 h, ELISA, vs LPS-treated group",significantly decreased levels of TNF-α
same,"severity of liver injury (H&E, liver injury score)","[3]; male C57/BL6 mice, 10 mg/kg i.p. once daily pretreatment, LPS 10 mg/kg i.p., score 0 to 4",attenuated
same,serum ALT and AST,"[3]; male C57/BL6 mice, 10 mg/kg i.p. once daily pretreatment, LPS 10 mg/kg i.p., vs LPS-treated group",significantly attenuated these effects
